The subject of experiment [1] is MCF-7 cells stably transfected with the mutant ER (A908G, Lys303Arg). The experiment in a line: Cell growth of MCF-7 clones stably transfected with the mutant ER in response to estradiol. The class given is cell-based, human. Conditions: cells expressing the ERα mutant, calculated from the growth curves. As to the method:
(§1) The medium was replaced every 48 h and the cells were harvested and counted on days 2, 4, 6, and 8, respectively. Cell number X 10^4 is shown.
(§2) The WT ER expression construct was prepared in the pcDNAI vector as described previously (Fuqua et al., 1995). Site directed mutagenesis of this construct was then utilized to generate the A908G transition and the entire coding sequence of ER was verified by dideoxysequence analysis in this clone. The generation of stable transfectants was performed as described by Oesterreich et al. (1993) using cotransfection with the G418-selectable expression vector pSVneo at a ration of 25:1 with the ER plasmids into MCF-7 breast cancer cells. […] Two to three-fold elevated levels of total ER protein were detected in the two WT ER and the three Var clones. […] Furthermore, the relative levels of WT or Var sequences were determined by genomic sequence analysis as described above; the ER Var transfectants contained both WT nucleotide (A) and Var nucleotide (G) sequence in approximately equal ratios on the sequencing gels.
(§3) The proliferative response to hormones in breast cancer cell transfectants containing the mutation was tested to determine if this ER mutation confers a selective advantage. […] This cell line was chosen because it was determined that WT ERα was expressed along with the mutant in the original 2/4 typical hyperplastic lesions which were examined. […]

Experiment [2] deals with MCF-7 breast cancer cells. The experiment in a line: Cell growth of untransfected parental MCF-7 cells in response to estradiol. It counts as cell-based, human. Conditions: calculated from the growth curves. How it is done: as §1, §2, §3
Experiment [3] deals with WT ERα and the A908G ERα mutation. The experiment in a line: Saturation binding Scatchard analyses. Set-up: species or system human.
A further experiment concerns breast cancer. As to conditions: patients with a history of ADH receiving tamoxifen (Fisher et al., 1998); cited from earlier work.

Regarding `C[C@]12CC[C@@H]3c4ccc(O)cc4CC[C@H]3[C@@H]1CC[C@@H]2O` [estradiol], the doubling time in experiment [1] (10^−9 M of hormone) is 1.3 days; in experiment [1] (10^−12 M of hormone) it was 1.3 days; in experiment [2] (MCF-7 cells in 10^−9 M estradiol), 1.3 days; in experiment [2] (MCF-7 cells in 10^−12 M estradiol), 2.2 days.
Consider `CC/C(=C(\c1ccccc1)c1ccc(OCCN(C)C)cc1)c1ccccc1` [tamoxifen], for which the “difference in affinity between WT ERα and the A908G ERα mutation” value in experiment [3] was “nor were there differences in affinity”. In addition, the “decrease in breast cancer incidence” value with breast cancer is recorded as 85%.

(Values after patent publication US7419785B2, “Methods and compositions in breast cancer diagnosis and therapeutics” (Baylor College of Medicine, priority 2001, dated 2008).)
